Source: US9309242B2, “Substituted pyrido[2,3-b]pyrazines as FGFR kinase inhibitors” (priority 2011, dated 2016)
Counter-ions that a name gives are not always drawn. Like-named read-outs stand apart in the source and are kept apart here.

What was measured:
[1] = biological target: FGFR1 (h) (Homo sapiens, UniProt P11362); assay: FGFR1 (enzymatic assay), TR-FRET; type: biochemical; details: read-out: FGFR 1 pIC50 (converted)
[2] = biological target: T1, Ba/F3-FGFR1-transfected cells (Homo sapiens, UniProt P11362); assay: Ba/F3-FGFR1 (minus IL3) cellular proliferation assay, Alamar Blue; type: cell-based
T1 construct: BAF3-FGFR1 (MIN IL3) pIC50; other: minus IL3
Description: (§1) Ba/F3-FGFR1 (Minus IL3 or Plus IL3) (Cellular Proliferation Assay)
(§2) In a 384 well plate, 100 nl of compound dilution in DMSO was sprayed before adding 50 μl cell culture medium (phenol red free RPMI-1640, 10% FBS, 2 mM L-Glutamine and 50 μg/ml Gentamycin) containing 20000 cells per well of Ba/F3-FGFR1-transfected cells. Cells were put in an incubator at 37° C. and 5% CO2. After 24 hours, 10 μl of Alamar Blue solution (0.5 mM K3Fe(CN)6, 0.5 mM K4Fe(CN)6, 0.15 mM Resazurin and 100 mM Phosphate Buffer) was added to the wells, incubated for 4 hours at 37° C. and 5% CO2 before RFU's (Relative Fluorescence Units) (ex. 540 nm., em. 590 nm.) were measured in a fluororescence plate reader.

[3] = biological target: T2, Ba/F3-FGFR3-transfected cells (Homo sapiens, UniProt P22607); assay: Ba/F3-FGFR3 (minus IL3) cellular proliferation assay, Alamar Blue; type: cell-based
T2 construct: BAF3-FGFR3 (MIN IL3) pIC50; other: minus IL3
Description: (§3) Ba/F3-FGFR3 (Minus IL3 or Plus IL3) (Cellular Proliferation Assay)
as §2, with “Ba/F3-FGFR3-transfected” for “Ba/F3-FGFR1-transfected”, “reader. […]” for “reader.”

[4] = biological target: T3, Ba/F3-KDR-transfected cells (Homo sapiens, UniProt P35968); assay: Ba/F3-KDR (minus IL3) cellular proliferation assay, Alamar Blue; type: cell-based
T3 construct: BAF3-KDR (MIN IL3) pIC50; other: minus IL3
Description: (§4) Ba/F3-KDR (Minus IL3 or Plus IL3) (Cellular Proliferation Assay)
as §2, with “n1” for “nl”, “Ba/F3-KDR-transfected” for “Ba/F3-FGFR1-transfected”, “reader. […]” for “reader.”

[5] = biological target: FGFR2 (h) (Homo sapiens, UniProt P21802); assay: FGFR2 (enzymatic assay), TR-FRET; type: biochemical; details: enzymatic assay, read-out: FGFR 2 pIC50 (converted)
Description: In a final reaction volume of 30 μL, FGFR2 (h) (150 ng/ml) was incubated with 50 mM HEPES pH 7.5, 6 mM MnCl2, 1 mM DTT, 0.1 mM Na3VO4, 0.01% Triton-X-100, 500 nM Btn-Flt3 and 0.4 μM ATP in the presence of compound (1% DMSO final).

[6] = test system: Ba/F3-FGFR3-transfected cells; assay: Ba/F3-FGFR3 (plus IL3) cellular proliferation assay, counterscreen with 10 ng/ml murine IL3; type: cell-based; details: for BAF3-FGFR3 (PLUS IL3) pIC50: plus IL3 (10 ng/ml murine IL3, counterscreen)
Description: as §3
as §2, with “Ba/F3-FGFR3-transfected” for “Ba/F3-FGFR1-transfected”
(§5) As a counterscreen the same experiment was performed in the presence of 10 ng/ml murine IL3.

[7] = biological target: KDR (h) (Homo sapiens, UniProt P35968); assay: KDR (VEGFR2) (enzymatic assay), TR-FRET; type: biochemical; details: read-out: VEGFR 2 (KDR) pIC50 (converted)
Description: KDR (VEGFR2) (Enzymatic Assay)
In a final reaction volume of 30 μL, KDR (h) (150 ng/ml) was incubated with 50 mM HEPES pH 7.5, 6 mM MnCl2, 1 mM DTT, 0.1 mM Na3VO4, 0.01% Triton-X-100, 500 nM Btn-Flt3 and 3 μM ATP in the presence of compound (1% DMSO final). After incubation for 120 minutes at room temperature the reaction was stopped with 2.27 nM EU-anti P-Tyr, 7 mM EDTA, 31.25 nM SA-XL-665 and 0.02% BSA which was present for 60 minutes at room temperature. Time-Resolved Fluorescence Resonance Energy Transfer (TR-FRET) signal (ex340 nm. Em 620 nm, em 655 nm) was measured afterwards and results are expressed in RFU (Relative Fluorescence Units).

[8] = biological target: FGFR4 (h) (Homo sapiens, UniProt P22455); assay: FGFR4 (enzymatic assay), TR-FRET; type: biochemical; details: FGFR 4 pIC50, enzymatic assay
[9] = test system: Ba/F3-FGFR1-transfected cells; assay: Ba/F3-FGFR1 (plus IL3) cellular proliferation assay, counterscreen with 10 ng/ml murine IL3; type: cell-based; details: for BAF3-FGFR1 (PLUS IL3) pIC50: plus IL3 (10 ng/ml murine IL3, counterscreen)
Description: as §1, §2, §5

[10] = biological target: FGFR3 (h) (Homo sapiens, UniProt P22607); assay: FGFR3 (enzymatic assay), TR-FRET; type: biochemical; details: read-out: FGFR 3 pIC50 (converted)
Source text: Time-Resolved Fluorescence Resonance Energy Transfer (TR-FRET) signal (ex340 nm.

[11] = test system: Ba/F3-KDR-transfected cells; assay: Ba/F3-KDR (plus IL3) cellular proliferation assay, counterscreen with 10 ng/ml murine IL3; type: cell-based; details: for BAF3-KDR (PLUS IL3) pIC50: plus IL3 (10 ng/ml murine IL3, counterscreen)
Description: as §4
as §2, with “n1” for “nl”, “Ba/F3-KDR-transfected” for “Ba/F3-FGFR1-transfected”
as §5

[12] = biological target: Ba/F3-FGFR4-transfected cells (Homo sapiens, UniProt P22455); assay: Ba/F3-FGFR4 cellular proliferation assay, Alamar Blue; type: cell-based
Description: Ba/F3-FGFR4 (Cellular Proliferation Assay)
as §2, with “n1” for “nl”, “Ba/F3-FGFR4-transfected” for “Ba/F3-FGFR1-transfected”

[13] = average values if tested multiple times

T2 sequence (P22607 whole entry, change not shown): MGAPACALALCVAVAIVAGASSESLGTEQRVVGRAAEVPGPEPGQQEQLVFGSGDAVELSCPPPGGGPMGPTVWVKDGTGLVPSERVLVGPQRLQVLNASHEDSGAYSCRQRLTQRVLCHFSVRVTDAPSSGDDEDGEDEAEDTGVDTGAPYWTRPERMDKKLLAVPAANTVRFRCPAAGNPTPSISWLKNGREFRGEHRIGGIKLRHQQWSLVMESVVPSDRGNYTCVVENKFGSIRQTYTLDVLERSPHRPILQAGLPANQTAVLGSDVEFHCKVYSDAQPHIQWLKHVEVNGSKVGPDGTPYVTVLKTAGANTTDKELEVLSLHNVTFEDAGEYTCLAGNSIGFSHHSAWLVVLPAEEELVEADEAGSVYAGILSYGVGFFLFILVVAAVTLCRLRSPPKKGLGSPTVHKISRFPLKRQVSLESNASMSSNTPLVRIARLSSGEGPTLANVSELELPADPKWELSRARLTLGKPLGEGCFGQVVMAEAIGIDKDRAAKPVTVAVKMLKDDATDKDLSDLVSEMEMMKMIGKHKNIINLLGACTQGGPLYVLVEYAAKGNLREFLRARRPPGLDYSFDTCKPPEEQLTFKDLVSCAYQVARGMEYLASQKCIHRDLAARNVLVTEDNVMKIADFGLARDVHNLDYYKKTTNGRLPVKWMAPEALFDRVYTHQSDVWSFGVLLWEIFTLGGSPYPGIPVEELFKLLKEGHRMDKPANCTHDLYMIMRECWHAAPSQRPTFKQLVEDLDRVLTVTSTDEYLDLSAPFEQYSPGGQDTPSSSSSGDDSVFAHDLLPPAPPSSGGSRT
FGFR4 (h), sequence (P22455 22-802): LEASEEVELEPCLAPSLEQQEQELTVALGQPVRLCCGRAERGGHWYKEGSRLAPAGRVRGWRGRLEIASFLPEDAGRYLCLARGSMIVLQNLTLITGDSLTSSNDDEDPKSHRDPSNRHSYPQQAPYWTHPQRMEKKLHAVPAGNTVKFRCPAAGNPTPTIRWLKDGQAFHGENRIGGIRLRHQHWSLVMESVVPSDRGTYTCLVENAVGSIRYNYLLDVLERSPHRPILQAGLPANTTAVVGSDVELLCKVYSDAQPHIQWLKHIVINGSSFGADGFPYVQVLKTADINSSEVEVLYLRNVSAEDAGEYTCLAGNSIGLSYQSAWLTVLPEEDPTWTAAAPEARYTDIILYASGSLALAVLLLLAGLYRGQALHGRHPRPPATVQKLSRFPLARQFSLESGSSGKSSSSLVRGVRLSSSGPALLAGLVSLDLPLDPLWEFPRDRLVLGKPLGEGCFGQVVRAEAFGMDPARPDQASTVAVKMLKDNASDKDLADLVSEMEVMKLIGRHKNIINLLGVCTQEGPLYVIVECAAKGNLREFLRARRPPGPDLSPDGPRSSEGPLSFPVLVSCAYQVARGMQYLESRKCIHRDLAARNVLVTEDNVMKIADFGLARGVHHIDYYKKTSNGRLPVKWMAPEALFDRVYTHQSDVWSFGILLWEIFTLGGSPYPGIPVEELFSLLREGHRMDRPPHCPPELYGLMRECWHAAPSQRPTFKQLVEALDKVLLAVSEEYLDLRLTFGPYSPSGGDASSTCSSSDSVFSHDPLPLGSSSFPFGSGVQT
Ba/F3-FGFR4-transfected cells, sequence (P22455 whole entry, change not shown): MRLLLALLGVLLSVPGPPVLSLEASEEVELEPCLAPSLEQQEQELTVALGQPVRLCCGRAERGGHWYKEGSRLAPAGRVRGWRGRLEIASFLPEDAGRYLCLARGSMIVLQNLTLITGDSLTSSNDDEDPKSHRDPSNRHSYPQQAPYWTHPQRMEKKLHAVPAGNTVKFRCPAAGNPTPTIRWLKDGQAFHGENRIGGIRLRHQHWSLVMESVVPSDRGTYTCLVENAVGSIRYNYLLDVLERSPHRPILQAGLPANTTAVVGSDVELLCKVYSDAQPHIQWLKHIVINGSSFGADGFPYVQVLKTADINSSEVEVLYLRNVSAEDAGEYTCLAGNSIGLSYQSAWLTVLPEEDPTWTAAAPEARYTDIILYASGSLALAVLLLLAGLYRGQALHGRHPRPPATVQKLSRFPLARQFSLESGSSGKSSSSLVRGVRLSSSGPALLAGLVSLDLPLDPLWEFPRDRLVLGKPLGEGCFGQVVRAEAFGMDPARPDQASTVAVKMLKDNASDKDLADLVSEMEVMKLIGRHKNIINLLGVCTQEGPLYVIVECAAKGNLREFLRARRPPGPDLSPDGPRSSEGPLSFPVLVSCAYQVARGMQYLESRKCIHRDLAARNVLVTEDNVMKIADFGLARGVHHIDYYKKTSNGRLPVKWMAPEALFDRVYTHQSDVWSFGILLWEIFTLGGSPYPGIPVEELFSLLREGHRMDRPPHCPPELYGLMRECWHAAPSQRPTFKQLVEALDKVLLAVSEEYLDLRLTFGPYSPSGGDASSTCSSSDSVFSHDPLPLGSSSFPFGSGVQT
FGFR2 (h), sequence (P21802 22-821): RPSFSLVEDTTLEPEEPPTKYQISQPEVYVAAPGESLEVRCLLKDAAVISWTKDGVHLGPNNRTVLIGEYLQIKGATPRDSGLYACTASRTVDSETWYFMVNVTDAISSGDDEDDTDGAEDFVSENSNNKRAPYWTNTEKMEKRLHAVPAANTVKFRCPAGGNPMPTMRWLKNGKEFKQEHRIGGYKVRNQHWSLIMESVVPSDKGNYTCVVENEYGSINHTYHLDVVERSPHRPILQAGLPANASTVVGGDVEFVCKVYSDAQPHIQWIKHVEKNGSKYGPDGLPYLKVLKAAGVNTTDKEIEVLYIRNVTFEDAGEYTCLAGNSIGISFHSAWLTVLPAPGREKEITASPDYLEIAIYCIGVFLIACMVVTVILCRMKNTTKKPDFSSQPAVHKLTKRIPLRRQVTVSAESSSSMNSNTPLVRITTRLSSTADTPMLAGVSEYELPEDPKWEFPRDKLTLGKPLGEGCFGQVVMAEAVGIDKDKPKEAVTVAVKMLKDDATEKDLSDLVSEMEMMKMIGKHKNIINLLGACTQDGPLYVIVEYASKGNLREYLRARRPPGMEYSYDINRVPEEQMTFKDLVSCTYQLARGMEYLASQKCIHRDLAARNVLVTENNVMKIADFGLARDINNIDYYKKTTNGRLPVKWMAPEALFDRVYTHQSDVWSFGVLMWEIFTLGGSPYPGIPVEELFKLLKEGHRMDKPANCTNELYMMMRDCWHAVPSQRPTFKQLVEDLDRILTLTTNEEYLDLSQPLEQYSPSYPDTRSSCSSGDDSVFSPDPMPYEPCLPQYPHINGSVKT
T1 sequence (P11362 whole entry, change not shown): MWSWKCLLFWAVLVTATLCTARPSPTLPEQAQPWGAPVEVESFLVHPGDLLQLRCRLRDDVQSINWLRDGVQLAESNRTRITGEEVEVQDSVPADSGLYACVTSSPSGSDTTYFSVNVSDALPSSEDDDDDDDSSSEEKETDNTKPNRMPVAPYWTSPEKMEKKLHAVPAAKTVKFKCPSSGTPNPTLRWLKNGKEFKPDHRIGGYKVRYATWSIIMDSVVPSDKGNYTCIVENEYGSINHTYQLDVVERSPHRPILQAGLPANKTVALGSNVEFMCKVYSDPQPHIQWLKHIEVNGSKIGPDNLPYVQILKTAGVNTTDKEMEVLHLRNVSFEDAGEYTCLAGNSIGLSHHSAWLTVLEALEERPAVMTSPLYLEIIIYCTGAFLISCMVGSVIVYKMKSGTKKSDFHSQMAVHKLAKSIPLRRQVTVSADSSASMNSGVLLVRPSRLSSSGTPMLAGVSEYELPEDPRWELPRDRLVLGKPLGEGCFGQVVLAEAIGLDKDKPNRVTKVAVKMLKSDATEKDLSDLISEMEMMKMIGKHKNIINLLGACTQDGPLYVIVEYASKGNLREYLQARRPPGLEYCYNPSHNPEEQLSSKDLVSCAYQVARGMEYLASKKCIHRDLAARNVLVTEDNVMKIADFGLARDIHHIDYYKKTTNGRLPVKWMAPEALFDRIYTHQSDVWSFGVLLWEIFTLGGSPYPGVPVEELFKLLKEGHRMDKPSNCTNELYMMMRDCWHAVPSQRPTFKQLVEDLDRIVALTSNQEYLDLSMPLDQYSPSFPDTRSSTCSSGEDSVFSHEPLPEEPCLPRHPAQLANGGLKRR
FGFR1 (h), sequence (P11362 22-822): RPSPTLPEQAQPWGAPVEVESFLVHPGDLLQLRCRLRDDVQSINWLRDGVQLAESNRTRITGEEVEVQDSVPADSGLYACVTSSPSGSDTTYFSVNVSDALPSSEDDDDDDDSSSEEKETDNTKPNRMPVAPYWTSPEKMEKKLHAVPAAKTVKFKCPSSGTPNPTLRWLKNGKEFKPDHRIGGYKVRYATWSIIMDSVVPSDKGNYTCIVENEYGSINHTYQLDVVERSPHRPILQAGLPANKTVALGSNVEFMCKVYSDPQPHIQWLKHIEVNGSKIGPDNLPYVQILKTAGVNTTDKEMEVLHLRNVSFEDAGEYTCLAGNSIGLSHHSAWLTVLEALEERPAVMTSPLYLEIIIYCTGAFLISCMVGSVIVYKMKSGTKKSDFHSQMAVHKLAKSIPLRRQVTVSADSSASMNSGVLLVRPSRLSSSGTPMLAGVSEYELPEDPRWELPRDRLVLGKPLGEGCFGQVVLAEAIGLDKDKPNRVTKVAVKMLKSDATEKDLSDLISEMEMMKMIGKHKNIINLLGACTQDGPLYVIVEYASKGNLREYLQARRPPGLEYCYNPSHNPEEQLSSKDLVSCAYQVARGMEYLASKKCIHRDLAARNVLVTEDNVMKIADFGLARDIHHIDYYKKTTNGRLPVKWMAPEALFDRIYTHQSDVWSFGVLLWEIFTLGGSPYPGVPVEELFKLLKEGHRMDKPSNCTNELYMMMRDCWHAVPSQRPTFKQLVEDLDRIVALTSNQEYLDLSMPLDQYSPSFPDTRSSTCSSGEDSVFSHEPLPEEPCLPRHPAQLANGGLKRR

| SMILES | IC50 [1, 13] | BAF3-FGFR1 (MIN IL3) pIC50 [2] | BAF3-FGFR3 (MIN IL3) pIC50 [3] | BAF3-KDR (MIN IL3) pIC50 [4] | IC50 [5, 13] | BAF3-FGFR3 (PLUS IL3) pIC50 [6] | IC50 [7, 13] | IC50 [8, 13] | BAF3-FGFR1 (PLUS IL3) pIC50 [9] | IC50 [10, 13] | BAF3-KDR (PLUS IL3) pIC50 [11] | BAF3-FGFR4 pIC50 [12] | IC50 [1] | IC50 [5] | IC50 [7] | IC50 [8] | IC50 [10] | IC50 ([6]; read-out: BAF3-FGFR3 (PLUS IL3) pIC50 (converted)) | IC50 ([9]; read-out: BAF3-FGFR1 (PLUS IL3) pIC50 (converted)) | IC50 ([11]; read-out: BAF3-KDR (PLUS IL3) pIC50 (converted)) |
| --- | --- | --- | --- | --- | --- | --- | --- | --- | --- | --- | --- | --- | --- | --- | --- | --- | --- | --- | --- | --- |
| COc1cc(OC)c(F)c(N(Cc2ncc[nH]2)c2ccc3ncc(-c4cnn(C)c4)nc3n2)c1 [23-phosphate salt] | 0.468 nM | 8.83 | ~8.64 | 7.03 | 1.91 nM | <5 | 7.94 nM | 0.977 nM | <5 | 1.1 nM | <5 | 8.15 | – | – | – | – | – | – | – | – |
| COc1cc(OC)c(F)c(N(CC(O)COC(C)C)c2ccc3ncc(-c4cnn(C)c4)nc3n2)c1 (single isomer, unassigned) [Compound 78] | 2.4 nM | 7.59 | 7.70 | 6.13 | 2.75 nM | <5 | 15.1 nM | 2.51 nM | <5 | 2.34 nM | <5 | 7.03 | – | – | – | – | – | – | – | – |
| COc1cc(OC)c(F)c(N(CC(O)COC(C)C)c2ccc3ncc(-c4cnn(C)c4)nc3n2)c1 (single isomer, unassigned) [Compound 79] | 2.34 nM | 7.58 | 7.63 | 5.73 | 2.95 nM | <5 | 25.7 nM | 2 nM | <5 | 1.66 nM | <5 | 7.28 | – | – | – | – | – | – | – | – |
| COc1cc(OC)c(F)c(N(CC2CCC(=O)N2)c2ccc3ncc(-c4cnn(C)c4)nc3n2)c1 (stereo not drawn) [Compound 52] | 2.57 nM | 7.10 | 7.10 | 5.56 | 2.69 nM | <5 | 25.1 nM | 4.79 nM | <5 | 1.95 nM | <5 | 6.55 | – | – | – | – | – | – | – | – |
| COc1cc(OC)c(F)c(N(Cc2ncc[nH]2)c2ccc3ncc(-c4cnn(C)c4)nc3n2)c1 [23-Sulfate salt] | 0.589 nM | 8.94 | ~8.64 | 6.51 | 2.09 nM | <5 | 7.94 nM | 1.26 nM | <5 | 1.12 nM | <5 | 7.88 | – | – | – | – | – | – | – | – |
| COc1cc(OC)c(F)c(N(CC2CCOC2)c2ccc3ncc(-c4cnn(C)c4)nc3n2)c1 (single isomer, unassigned) [Compound 171] | – | 7.10 | 7.28 | 5.63 | – | <5 | – | – | <5 | – | <5 | 6.55 | 3.55 nM | 2.57 nM | ~14.5 nM | 3.72 nM | 1.55 nM | – | – | – |
| COc1cc(OC)cc(N(Cc2ncc[nH]2)c2ccc3ncc(-c4cnn(C)c4)nc3n2)c1 [24-hydrochloric acid salt] | 0.776 nM | 8.16 | 7.96 | 5.92 | 1.41 nM | <5 | 7.24 nM | 1.2 nM | <5 | 1.02 nM | <5 | 7.77 | – | – | – | – | – | – | – | – |
| COc1cc(OC)c(F)c(N(Cc2nnc(NCCO)o2)c2ccc3ncc(-c4cnn(C)c4)nc3n2)c1 [Compound 283] | – | 5.18 | 5.26 | <5 | – | – | – | – | – | – | – | <5 | ~7.08 nM | 5.13 nM | 105 nM | 21.4 nM | 5.13 nM | > 10000 nM | > 10000 nM | > 10000 nM |
